In assay [1] the test system is Beet Armyworm (Spodoptera exigua). The assay is described as follows: Insecticidal diet-surface test for beet armyworm. As to conditions: 120 h, read-out: LAPHEG AVG % Mortality (50 μg/cm^2). The assay is classed as in vivo. As for the experimental part: (§1) The compounds identified in Table 1 were tested against beet armyworm and corn earworm as follows:
(§2) Insecticidal Test for Corn Earworm (Helicoverpa zea) and Beet Armyworm (Spodoptera exigua).
(§3) To prepare test solution, the test compound was formulated at 2000 ppm solution as 4 mg/2 mL of 9 acetone:1 tap water. 50 μL of the 2000 ppm (equivalent to 50 μg/cm^2 dose on diet surface area) test solution was pipetted upon the surface of 1 mL of lepidopteran diet (Southland Multi-Species Lepidopteran Diet) contained in each of eight wells per insect species (one well=1 replication). A second-instar corn earworm and beet armyworm was placed upon the treated diet in each well once the solvent had air-dried. Trays containing the treated diet and larvae were covered and then held in a growth chamber at 25° C., 50-55% RH, and 16 hr light:8 hr dark for 5 days. Observation were conducted 5 days after treatment and infestation. The number of dead insects of 8 per species per treatment was then determined and the results are given in Table 2 as a percent control at a dose of […].

Assay [2] relates to Corn Earworm (Helicoverpa zea). The assay is described as follows: Insecticidal diet-surface test for corn earworm. The assay is classed as in vivo. As to conditions: 120 h, read-out: HELIZE AVG % Mortality (50 μg/cm^2). Here is the method:
as §1, §2, §3

Setting [3] is: second-instar larvae on treated diet, 50 μg/cm^2 on diet surface, 5 days after treatment, 8 insects per treatment.

The record followed here is patent US8455649B2, “Insecticidal substituted azinyl derivatives” (Dow AgroSciences, LLC, priority 2007, dated 2013).

Like-named read-outs stand apart in the source and are kept apart here.

Regarding `O=C(Nc1ccc(OC(F)(F)F)cc1)N(COCc1ccccc1)c1nc(OCC(F)(F)F)cc(OCC(F)(F)F)n1` [Compound 43], the mortality at 50 µg/cm2 in assay [1] (setting [3]) and in assay [2] (setting [3]) was 100% in each case.

On to `CCOCN(C(=O)Nc1nc(OCC(F)(F)F)cc(OCC(F)(F)F)n1)c1ccc(OC(F)(F)F)cc1` [Compound 44], for which the mortality at 50 µg/cm2 in assay [1] (setting [3]) and in assay [2] (setting [3]) was 100% each time.

With `COCN(C(=O)Nc1nc(OCC(F)(F)F)cc(OCC(F)(F)F)n1)c1ccc(OC(F)(F)F)cc1` [Compound 45], the mortality at 50 µg/cm2 in assay [1] (setting [3]) and in assay [2] (setting [3]) was 100% each time.

Consider `CCN(C(=O)Nc1nc(OCC(F)(F)F)cc(OCC(F)(F)F)n1)c1ccc(Br)nc1` [Compound 46], for which the mortality at 50 µg/cm2 in assay [1] (setting [3]) and in assay [2] (setting [3]) was 100% each time.

With `CN(C(=O)Nc1nc(OCC(F)(F)F)cc(OCC(F)(F)F)n1)c1ccc(C(F)(F)F)nc1` [Compound 47], the mortality at 50 µg/cm2 in assay [1] (setting [3]) and in assay [2] (setting [3]) was 100% each time.

For the molecule `CN(C(=O)Nc1nc(OCC(F)(F)F)cc(OCC(F)(F)F)n1)c1ccc(Cl)nc1` [Compound 48], the mortality at 50 µg/cm2 in assay [1] (setting [3]) and in assay [2] (setting [3]) was 100% each time.

For `O=C(Nc1ccc(Cl)nc1)Nc1nc(OCC(F)(F)F)cc(OCC(F)(F)F)n1` [Compound 49], the mortality at 50 µg/cm2 in assay [1] (setting [3]) and in assay [2] (setting [3]) was 100% throughout.

With `COCCN(C(=O)Nc1nc(OCC(F)(F)F)cc(OCC(F)(F)F)n1)c1ccc(OC(F)(F)F)cc1` [Compound 50], the mortality at 50 µg/cm2 in assay [1] (setting [3]) and in assay [2] (setting [3]) was 100% each time.

For the molecule `CC(C)(C)COCN(C(=O)N(COCc1ccccc1)c1nc(OCC(F)(F)F)cc(OCC(F)(F)F)n1)c1ccc(C(F)(F)F)cc1` [Compound 51], the mortality at 50 µg/cm2 was determined as 100% in assay [1] (setting [3]) and 0% in assay [2] (setting [3]).

Turning to `COCCOCN(C(=O)N(COCc1ccccc1)c1nc(OCC(F)(F)F)cc(OCC(F)(F)F)n1)c1ccc(C(F)(F)F)cc1` [Compound 52], the mortality at 50 µg/cm2 in assay [1] (setting [3]) and in assay [2] (setting [3]) was 100% each time.

In the case of `CC(C)OCN(C(=O)Nc1nc(OCC(F)(F)F)cc(OCC(F)(F)F)n1)c1ccc(C(F)(F)F)cc1` [Compound 53], the mortality at 50 µg/cm2 in assay [1] (setting [3]) and in assay [2] (setting [3]) was 100% throughout.

Consider `O=C(Nc1ccc(I)cc1)Nc1nc(OCC(F)(F)F)cc(OCC(F)(F)F)n1` [Compound 54], for which the mortality at 50 µg/cm2 in assay [1] (setting [3]) and in assay [2] (setting [3]) was 100% in each case.

As to `N#Cc1ccc(NC(=O)Nc2nc(OCC(F)(F)F)cc(OCC(F)(F)F)n2)cc1Cl` [Compound 55], the mortality at 50 µg/cm2 came to 0% in assay [1] and 100% in assay [2].

As to `O=C(Nc1ccc([N+](=O)[O-])cc1)Nc1nc(OCC(F)(F)F)cc(OCC(F)(F)F)n1` [Compound 56], the mortality at 50 µg/cm2 in assay [1] (setting [3]) was 0%; in assay [2] (setting [3]) it was 100%.

As for `CSc1ccc(NC(=O)Nc2nc(OCC(F)(F)F)cc(OCC(F)(F)F)n2)cc1` [Compound 57], the mortality at 50 µg/cm2 in assay [1] (setting [3]) turned out to be 0%; in assay [2] (setting [3]) it was 100%.

With `O=C(Nc1ccc(SC(F)(F)F)cc1)Nc1nc(OCC(F)(F)F)cc(OCC(F)(F)F)n1` [Compound 58], the mortality at 50 µg/cm2 in assay [1] (setting [3]) and in assay [2] (setting [3]) was 100% each time.

Regarding `O=C(Nc1ccc(S(=O)(=O)C(F)(F)F)cc1)Nc1nc(OCC(F)(F)F)cc(OCC(F)(F)F)n1` [Compound 59], the mortality at 50 µg/cm2 came out at 0% in assay [1] (setting [3]) and 100% in assay [2] (setting [3]).

As for `CC(C)(C)COCN(C(=O)Nc1nc(OCC(F)(F)F)cc(OCC(F)(F)F)n1)c1ccc(C(F)(F)F)cc1` [Compound 61], the mortality at 50 µg/cm2 in assay [1] (setting [3]) and in assay [2] (setting [3]) was 100% throughout.

Consider `COCCOCN(C(=O)Nc1nc(OCC(F)(F)F)cc(OCC(F)(F)F)n1)c1ccc(C(F)(F)F)cc1` [Compound 62], for which the mortality at 50 µg/cm2 in assay [1] (setting [3]) and in assay [2] (setting [3]) was 100% each time.

For `O=C(Nc1ccc(Br)cc1)N(COCc1ccccc1)c1nc(OCC(F)(F)F)cc(OCC(F)(F)F)n1` [Compound 63], the mortality at 50 µg/cm2 in assay [1] (setting [3]) and in assay [2] (setting [3]) was 100% each time.

With `O=C(Nc1nc(OCC(F)(F)F)cc(OCC(F)(F)F)n1)N(O)c1ccc(Cl)cc1` [Compound 64, N′-[4,6-bis(2,2,2-trifluoroethoxy)pyrimidin-2-yl]-N-(4chlorophenyl)-N-hydroxyurea], the mortality at 50 µg/cm2 in assay [1] (setting [3]) and in assay [2] (setting [3]) was 100% each time.

Turning to `CON(C(=O)Nc1nc(OCC(F)(F)F)cc(OCC(F)(F)F)n1)c1ccc(Cl)cc1` [Compound 65, N′-[4,6-bis(2,2,2-trifluoroethoxy)pyrimidin-2-yl]-N-(4-chlorophenyl)-N-methoxyurea], the mortality at 50 µg/cm2 in assay [1] (setting [3]) and in assay [2] (setting [3]) was 100% throughout.

On to `CC(C)OCN(C(=O)N(COCc1ccccc1)c1nc(OCC(F)(F)F)cc(OCC(F)(F)F)n1)c1ccc(Br)cc1` [Compound 66], for which the mortality at 50 µg/cm2 in assay [1] (setting [3]) and in assay [2] (setting [3]) was 100% in each case.

For `CCOCN(C(=O)N(COCc1ccccc1)c1nc(OCC(F)(F)F)cc(OCC(F)(F)F)n1)c1ccc(Br)cc1` [Compound 67], the mortality at 50 µg/cm2 in assay [1] (setting [3]) and in assay [2] (setting [3]) was 100% in each case.

Regarding `COCN(C(=O)N(COCc1ccccc1)c1nc(OCC(F)(F)F)cc(OCC(F)(F)F)n1)c1ccc(Br)cc1` [Compound 68], the mortality at 50 µg/cm2 in assay [1] (setting [3]) and in assay [2] (setting [3]) was 100% in each case.

Turning to `CC(C)N(C(=O)Nc1nc(OCC(F)(F)F)cc(OCC(F)(F)F)n1)c1ccc(OC(F)(F)F)cc1` [Compound 69], the mortality at 50 µg/cm2 in assay [1] (setting [3]) and in assay [2] (setting [3]) was 100% each time.

With `CN(C)CCN(C(=O)Nc1nc(OCC(F)(F)F)cc(OCC(F)(F)F)n1)c1ccc(OC(F)(F)F)cc1` [Compound 70], the mortality at 50 µg/cm2 in assay [1] (setting [3]) and in assay [2] (setting [3]) was 100% in each case.

For `CN(C(=O)Nc1nc(OCC(F)(F)F)cc(OCC(F)(F)F)n1)c1ccc(OCC(F)F)cc1` [Compound 71], the mortality at 50 µg/cm2 in assay [1] (setting [3]) and in assay [2] (setting [3]) was 100% throughout.

As for `O=C(Nc1ccc(Br)c(F)c1)Nc1nc(OCC(F)(F)F)cc(OCC(F)(F)F)n1` [Compound 72], the mortality at 50 µg/cm2 is 0% in assay [1] (setting [3]) and 100% in assay [2] (setting [3]).

For the molecule `CCOCN(C(=O)Nc1nc(OCC(F)(F)F)cc(OCC(F)(F)F)n1)c1ccc(Br)cc1` [Compound 74], the mortality at 50 µg/cm2 in assay [1] (setting [3]) and in assay [2] (setting [3]) was 100% throughout.

With `O=C(Nc1cc(F)c(C(F)(F)F)c(F)c1)Nc1nc(OCC(F)(F)F)cc(OCC(F)(F)F)n1` [Compound 76], the mortality at 50 µg/cm2 in assay [1] (setting [3]) and in assay [2] (setting [3]) was 100% throughout.

In the case of `N#CCN(C(=O)Nc1nc(OCC(F)(F)F)cc(OCC(F)(F)F)n1)c1ccc(OC(F)(F)F)cc1` [Compound 77], the mortality at 50 µg/cm2 in assay [1] (setting [3]) and in assay [2] (setting [3]) was 100% throughout.

As for `O=C(Nc1ccc(C(F)(F)F)c(F)c1)Nc1nc(OCC(F)(F)F)cc(OCC(F)(F)F)n1` [Compound 78], the mortality at 50 µg/cm2 in assay [1] (setting [3]) and in assay [2] (setting [3]) was 100% each time.

For `CN(C(=O)Nc1nc(OCC(F)(F)F)cc(OCC(F)(F)F)n1)c1ccc([N+](=O)[O-])cc1` [Compound 79], the mortality at 50 µg/cm2 in assay [1] (setting [3]) and in assay [2] (setting [3]) was 100% in each case.

For the molecule `CN(C(=O)Nc1nc(OCC(F)(F)F)cc(OCC(F)(F)F)n1)c1ccc(SC(F)(F)F)cc1` [Compound 80], the mortality at 50 µg/cm2 in assay [1] (setting [3]) and in assay [2] (setting [3]) was 100% each time.

In the case of `CN(C(=O)Nc1nc(OCC(F)(F)F)cc(OCC(F)(F)F)n1)c1ccc(I)cc1` [Compound 81], the mortality at 50 µg/cm2 in assay [1] (setting [3]) and in assay [2] (setting [3]) was 100% throughout.

As for `COC(=O)c1ccc(N(C)C(=O)Nc2nc(OCC(F)(F)F)cc(OCC(F)(F)F)n2)cc1` [Compound 82], the mortality at 50 µg/cm2 in assay [1] (setting [3]) turned out to be 100%; in assay [2] (setting [3]) it was 0%.

Take `CN(C(=O)Nc1nc(OCC(F)(F)F)cc(OCC(F)(F)F)n1)c1ccc(C#N)cc1` [Compound 83]: the mortality at 50 µg/cm2 in assay [1] (setting [3]) and in assay [2] (setting [3]) was 100% each time.

For `CN(C(=O)Nc1nc(OCC(F)(F)F)cc(OCC(F)(F)F)n1)c1ccc(Br)c(Cl)c1` [Compound 84], the mortality at 50 µg/cm2 in assay [1] (setting [3]) and in assay [2] (setting [3]) was 100% in each case.

On to `CN(C(=O)Nc1nc(OCC(F)(F)F)cc(OCC(F)(F)F)n1)c1ccc(Cl)c(Cl)c1` [Compound 85], for which the mortality at 50 µg/cm2 in assay [1] (setting [3]) and in assay [2] (setting [3]) was 100% in each case.

Take `CN(C(=O)Nc1nc(OCC(F)(F)F)cc(OCC(F)(F)F)n1)c1ccc(F)cc1` [Compound 86]: the mortality at 50 µg/cm2 in assay [1] (setting [3]) and in assay [2] (setting [3]) was 100% in each case.

Consider `O=C(Nc1ccc(C(F)(F)F)nc1)N(COCc1ccccc1)c1nc(OCC(F)(F)F)cc(OCC(F)(F)F)n1` [Compound 87], for which the mortality at 50 µg/cm2 in assay [1] (setting [3]) and in assay [2] (setting [3]) was 100% each time.

In the case of `CCOCN(C(=O)N(COCc1ccccc1)c1nc(OCC(F)(F)F)cc(OCC(F)(F)F)n1)c1ccc(C(F)(F)F)nc1` [Compound 88], the mortality at 50 µg/cm2 in assay [1] (setting [3]) and in assay [2] (setting [3]) was 100% in each case.
